Laboratory results as given in the supplement of paper PMC5908809.

Key:
DERL-7 (IL-2 2.5 ng/mL) [1] = experiment: percent inhibition of viability; higher = more inhibition; conditions: 72 h
KHYG-1 (IL-2 2.5 ng/mL) [2] = experiment: as above; conditions: 72 h
[3] = tested on: normal primary NK cells, pool 2 (3 donors) (IL-2 2.5 ng/mL); experiment: as above; conditions: 72 h
SNK-6 (IL-2 2.5 ng/mL) [4] = experiment: as above; conditions: 72 h
NK-YS (IL-2 2.5 ng/mL) [5] = experiment: as above; conditions: 72 h
IMC-1 (IL-2 20 ng/mL) [6] = experiment: as above; conditions: 72 h
[7] = tested on: normal primary NK cells, pool 1 (3 donors), resting (IL-2 0 ng/mL); experiment: as above; conditions: 72 h
YT (IL-2 2.5 ng/mL) [8] = experiment: as above; conditions: 72 h
[9] = tested on: normal primary NK cells, pool 1 (3 donors) (IL-2 2.5 ng/mL); experiment: as above; conditions: 72 h
KAI3 (IL-2 2.5 ng/mL) [10] = experiment: as above; conditions: 72 h
[11] = tested on: normal primary NK cells, pool 3 (3 donors) (IL-2 2.5 ng/mL); experiment: as above; conditions: 72 h
NK-92 (IL-2 2.5 ng/mL) [12] = experiment: as above; conditions: 72 h
NKL (IL-2 2.5 ng/mL) [13] = experiment: as above; conditions: 72 h
[14] = tested on: normal NK cells expanded with K562-aAPC; experiment: drug sensitivity score (DSS) (DSS units); higher = more sensitive; extreme values may be limits of the assay; conditions: 72 h; IL-2 2.5 ng/mL
Protocol: (§1)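 Drug sensitivity and resistance testing on K562-aAPC-expanded normal NK cells: 5 concentrations (10-fold steps over a 10,000-fold range), 72 h at 37 °C, viability by CellTiter-Glo normalised to DMSO and benzethonium chloride controls; DSS from the fitted curve.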

DERL-7 (IL-2 2.5 ng/mL) [15] = experiment: as above; conditions: 72 h
KHYG-1 (IL-2 2.5 ng/mL) [16] = experiment: as above; conditions: 72 h
[17] = tested on: normal primary NK cells, pool 2 (3 donors) (IL-2 2.5 ng/mL); experiment: as above; conditions: 72 h
SNK-6 (IL-2 2.5 ng/mL) [18] = experiment: as above; conditions: 72 h
NK-YS (IL-2 2.5 ng/mL) [19] = experiment: as above; conditions: 72 h
IMC-1 (IL-2 20 ng/mL) [20] = experiment: as above; conditions: 72 h
[21] = tested on: normal primary NK cells, pool 1 (3 donors), resting (IL-2 0 ng/mL); experiment: as above; conditions: 72 h
YT (IL-2 2.5 ng/mL) [22] = experiment: as above; conditions: 72 h
[23] = tested on: normal primary NK cells, pool 1 (3 donors) (IL-2 2.5 ng/mL); experiment: as above; conditions: 72 h
KAI3 (IL-2 2.5 ng/mL) [24] = experiment: as above; conditions: 72 h
[25] = tested on: normal primary NK cells, pool 3 (3 donors) (IL-2 2.5 ng/mL); experiment: as above; conditions: 72 h
NK-92 (IL-2 2.5 ng/mL) [26] = experiment: as above; conditions: 72 h
NKL (IL-2 2.5 ng/mL) [27] = experiment: as above; conditions: 72 h
[28] = tested on: normal NK cells expanded with K562-aAPC; experiment: percent inhibition of viability; higher = more inhibition; conditions: 72 h, IL-2 2.5 ng/mL
Protocol: as §1

CO[C@H]1C[C@@H]2CC[C@@H](C)[C@@](O)(O2)C(=O)C(=O)N2CCCC[C@H]2C(=O)O[C@H]([C@H](C)C[C@@H]2CC[C@@H](OC(=O)C(C)(CO)CO)[C@H](OC)C2)CC(=O)[C@H](C)/C=C(\C)[C@@H](O)[C@@H](OC)C(=O)[C@H](C)C[C@H](C)/C=C/C=C/C=C/1C [Temsirolimus] (max concentration tested 100 nM)
percent inhibition of viability [%]
Conditions	0.01 nM	0.1 nM	1 nM	10 nM	100 nM
DERL-7 (IL-2 2.5 ng/mL) [1]	0.65	5.41	38.2	53.8	56.5
IMC-1 (IL-2 20 ng/mL) [6]	1.04	2.24	-25.1	-30.5	-23.9
KAI3 (IL-2 2.5 ng/mL) [10]	-1.9	13.1	35.1	48.4	54.7
KHYG-1 (IL-2 2.5 ng/mL) [2]	-0.71	3.41	21.7	58.9	48.8
NK-92 (IL-2 2.5 ng/mL) [12]	-7.3	7.2	12.8	33.5	36.9
NK-YS (IL-2 2.5 ng/mL) [5]	-1.82	16.2	44.5	54.4	59
NKL (IL-2 2.5 ng/mL) [13]	5.4	32.6	52	59.1	58.7
SNK-6 (IL-2 2.5 ng/mL) [4]	4.31	14	45.6	56	55.2
YT (IL-2 2.5 ng/mL) [8]	0.8	5.67	35.9	50.6	55.3
[3]	-13.6	-11.5	7.96	18.8	14.9
[7]	-13.5	-0.02	6.4	10.2	4.95
[9]	-5.13	4.99	6.83	10.7	11.2
[11]	-9.23	-18.3	1.68	12.1	12.8
[28]	0.06	1.82	7.35	7.61	23.3

Conditions	drug sensitivity score
DERL-7 (IL-2 2.5 ng/mL) [15]	15.1
IMC-1 (IL-2 20 ng/mL) [20]	0
KAI3 (IL-2 2.5 ng/mL) [24]	14.2
KHYG-1 (IL-2 2.5 ng/mL) [16]	13.4
NK-92 (IL-2 2.5 ng/mL) [26]	7.04
NK-YS (IL-2 2.5 ng/mL) [19]	17.4
NKL (IL-2 2.5 ng/mL) [27]	21.6
SNK-6 (IL-2 2.5 ng/mL) [18]	17.2
YT (IL-2 2.5 ng/mL) [22]	14.4
[14]	1.25
[17]	3.24
[21]	0.07
[23]	0.28
[25]	0.84

O=C(Nc1cccc(Cl)c1)Nc1ncc(CCNc2ncnc3ccsc23)s1 [SNS-314] (max concentration tested 1000 nM)
percent inhibition of viability [%]
Conditions	0.1 nM	1 nM	10 nM	100 nM	1000 nM
DERL-7 (IL-2 2.5 ng/mL) [1]	-2.96	-1.43	3.21	69.3	58.4
IMC-1 (IL-2 20 ng/mL) [6]	-9.62	-5.56	14.2	10.2	70.4
KAI3 (IL-2 2.5 ng/mL) [10]	-2.71	-1.61	20.4	30.6	47.3
KHYG-1 (IL-2 2.5 ng/mL) [2]	-7.32	-4.71	35.4	53.6	68
NK-92 (IL-2 2.5 ng/mL) [12]	-4.05	-1.72	20.3	45.2	83.4
NK-YS (IL-2 2.5 ng/mL) [5]	-8.15	-3.63	-0.24	70.4	75.2
NKL (IL-2 2.5 ng/mL) [13]	-9.51	-8.35	6.03	23.5	42.8
SNK-6 (IL-2 2.5 ng/mL) [4]	-12.7	-23.7	33.2	59.5	70
YT (IL-2 2.5 ng/mL) [8]	-4.76	-1.46	7.82	19	37.3
[3]	-8.39	1.8	4.68	5.41	5.48
[7]	3.09	19.6	8.47	17.5	20.9
[9]	1.31	16.9	9.79	4.5	10.9
[11]	-5.85	0.22	7.29	3.37	8.78
[28]	-6.43	-10	4.3	43.3	42.2

Conditions	drug sensitivity score
DERL-7 (IL-2 2.5 ng/mL) [15]	13.1
IMC-1 (IL-2 20 ng/mL) [20]	5.61
KAI3 (IL-2 2.5 ng/mL) [24]	7.77
KHYG-1 (IL-2 2.5 ng/mL) [16]	15
NK-92 (IL-2 2.5 ng/mL) [26]	11.2
NK-YS (IL-2 2.5 ng/mL) [19]	13
NKL (IL-2 2.5 ng/mL) [27]	4.85
SNK-6 (IL-2 2.5 ng/mL) [18]	17.1
YT (IL-2 2.5 ng/mL) [22]	3.89
[14]	8.52
[17]	0
[21]	3.41
[23]	0
[25]	0
